In article PMC8421406, “C9orf72-derived arginine-rich poly-dipeptides impede phase modifiers” (Nature Communications, 2021):
Where no end group is shown, it is not given here. MBP = maltose-binding protein; HA = HA epitope tag

Key:
[1] = tested on: MBP:FUS (full-length FUS droplets) / Kapβ2; test: Turbidity assay of FUS droplet formation (OD 395 nm); format: biochemical; conditions: equimolar poly-dipeptide and Kapβ2 (8 μM)
Kapβ2 [2] = test: Pull-down (on-column) binding assay, Kapβ2; conditions: purified recombinant proteins, 20 mM HEPES pH 7.4, 150 mM NaCl, equal molar, 20–30 min
Text: (§1) Unbound proteins were washed three times with the buffer.

BSA = test: Pull-down binding assay, BSA control; conditions: GST:PR18 on beads
Text: as §1

EGFP = conditions: GST:PR18 on beads
Method: (§2) Four micrograms of GST proteins were immobilized on 30 μL of beads. […] Unbound proteins were washed three times with the buffer. Bound proteins and unbound proteins were separated by SDS-polyacrylamide gel electrophoresis and stained with Coomassie Brilliant Blue.

MBP = conditions: GST:PR18 on beads
Method: as §2

Lysozyme = test: Pull-down binding assay, Lysozyme control; conditions: GST:PR18 on beads
Text: as §1

endogenous Kapβ2 = test: Immunoprecipitation from HeLa cells; format: binding; conditions: expressed in HeLa cells; cytosol extract, Streptavidin Mag Sepharose
Method: The pcDNA5/FRT/TO-HA:SBP plasmid was generated by inserting the PCR-amplified HA:SBP sequence into the pcDNA5/FRT/TO vector (Thermo Fisher Scientific) between the HindIII and BamHI sites. The HA:SBP:GFP:PR20:HA plasmid was constructed by ligating the GFP:PR20:HA sequence into the pcDNA5/FRT/TO-HA-SBP between the EcoRV and XhoI sites. The HA:SBP:Kapβ2 plasmid was constructed by ligating the Kapβ2 sequence into the pcDNA5/FRT/TO-HA:SBP between the BamHI and NotI sites. HeLa cells were cultured in Dulbecco’s modified Eagle medium/10% fetal bovine serum at 37 °C with 5% CO2. Cells were transfected with plasmids using Lipofectamine 3000 (Thermo Fisher Scientific) according to the manufacturer’s instructions. HeLa cytosol extracts were prepared by Cytoplasmic Extraction buffer (CE; 10 mM HEPES pH 7.9, 60 mM KCl, 1 mM EDTA, 0.075% NP40, 1 mM DTT, and cOmplete™ EDTA-free protease inhibitor [Sigma-Aldrich]) for 10 min on ice and then separated from nuclear by centrifugation at 500 × g for 10 min. The resultant extracts were cleared by centrifugation at 20,400 × g for 10 min. The supernatant containing the HeLa cytosol extracts were mixed with the Streptavidin Mag Sepharose (GE Healthcare) and rotated at 4 °C overnight. The beads were finally washed five times with CE buffer. The anti-Kapβ2 (sc-166127, 1 : 1000) antibody was obtained from Santa Cruz Biotechnology. […]

Importinα = test: Pull-down binding assay, GST:Importinα; conditions: GST:Importinα on beads
Text: as §1

Importinβ1 = test: Pull-down binding assay, GST:Importinβ1; conditions: GST:Importinβ1 on beads
Text: as §1

Kapβ2 [3] = test: Isothermal titration calorimetry; format: binding; conditions: ITC, Supplementary Table 1 (not shown)
Method: ITC experiments were performed with a Malvern iTC200 calorimeter (Malvern Instruments). […] ITC experiments were performed at 25 °C with 19 rounds of 2 μL injections. Data were analyzed using Origin software.

Kapβ2 [4] = test: Analytical ultracentrifugation; format: binding; conditions: 28 µM each, 25 °C, 20 mM HEPES pH 7.4, 150 mM NaCl
Method: AUC measurements were conducted with ProteomeLab XL-I (Beckman Coulter). […] The solutions were filled in 1.5 mm path-length titanium cells (Nanolytics). The measurements were performed with Rayleigh-interference optics at rotor speed of 125,000 × g (at 70 mm radius). The temperature was set at 25 °C. The weight concentration distribution as a function of sedimentation coefficient c(s20,w) and frictional ratio f/f0 were computed with SEDFIT[49] and Igor Pro software. The sedimentation coefficient was normalized to be the value at 20 °C in pure water s20,w. The molecular weight M was calculated with the corresponding peak value of s20,w and f/f0[49].

GA20
Inhibition of the ability of Kapβ2 to melt FUS droplets (turbidity) [1]: did not

GST:PR18: Glutathione S-transferase fusion of PR18 (PRPRPRPRPRPRPRPRPRPRPRPRPRPRPRPRPRPR; also: GST fusion, end not given here)
Binding to Kapβ2 (pull-down) (Kapβ2 [2]): bound Kapβ2
Binding to BSA (pull-down) (BSA): no interaction
Binding to EGFP (pull-down) (EGFP): no interaction
Binding to MBP (pull-down) (MBP): no interaction
Binding to Lysozyme (pull-down) (Lysozyme): no interaction

HA:SBP:GFP:PR20:HA: PR20 fusion expressed from plasmid in HeLa cells ({HA-SBP-GFP}-PRPRPRPRPRPRPRPRPRPRPRPRPRPRPRPRPRPRPRPR-{HA}; not fully specified)
Co-immunoprecipitation of endogenous Kapβ2 (endogenous Kapβ2): interaction between endogenous Kapβ2 and HA:SBP:GFP:PR20:HA

MBP:PR8: maltose-binding protein fusion of 8 repeats of Pro-Arg ({MBP}-PRPRPRPRPRPRPRPR)
Binding to Kapβ2 (pull-down) (Kapβ2 [2]): did not

MBP:PR18: maltose-binding protein fusion of 18 repeats of Pro-Arg (PRPRPRPRPRPRPRPRPRPRPRPRPRPRPRPRPRPR; also: MBP fusion, end not given here)
Binding to Kapβ2 (pull-down) (Kapβ2 [2]): bound Kapβ2
Binding to Importinα (pull-down) (Importinα): interactions
Binding to Importinβ1 (pull-down) (Importinβ1): interactions
Relative binding strength to Kapβ2 vs full-length FUS (Kapβ2 [3]): bound Kapβ2 more strongly than full-length FUS does
Complex formation with Kapβ2 (AUC) (Kapβ2 [4]): complex formation
